According to article PMC6237192 (European journal of medicinal chemistry, 2018):

Assays:
MT4 cells = experiment: Cytotoxicity; type: cell-based, human; details: ratio of CC50 to IC50
HIV-1NL4-3 (subtype B) = experiment: Antiviral activity in MT-4 human T-lymphoid cells exposed to HIV-1NL4-3; type: cell-based; details: Human immunodeficiency virus 1, MT4, in Homo sapiens

Row | IC50 (HIV-1NL4-3 (subtype B)) | SMILES | Selectivity Index (MT4 cells)
1 | – | COc1ccc(S(=O)(=O)N(CC(C)C)C[C@@H](O)[C@H](Cc2ccccc2)NC(=O)c2ccc3c(c2)[C@@H](NC(=O)OC(C)(C)C)CCS3(=O)=O)cc1 [Inhibitor 4e, tert-Butyl ((S)-6-(((2S,3R)-3-hydroxy-4-((N-isobutyl-4-methoxyphenyl)sulfonamido)-1-phenylbutan-2-yl)carbamoyl)-1,1-dioxidothiochroman-4-yl)carbamate] | >2128
2 | 30 nM | CC(C)CN(C[C@@H](O)[C@H](Cc1ccccc1)NC(=O)O[C@H]1CCOC1)S(=O)(=O)c1ccc(N)cc1 [amprenavir] | –
